Measurements reported in ChEMBL document CHEMBL1201862, “PubChem BioAssay data set” (2004).
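Dose response: 5 concentrations. Exposure: 48 h. Format: 96-well plates. Endpoint: linear interpolation; highest concentration if not reached. GI50 marks 50% less growth.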 Activity calls are given as the source filed them. Cut-off read from the data, not from the text of the source: active = GI50 up to about 1.1 µM and inactive = higher.

Tests used:
Assay in all cases: growth of human tumour cells (NCI), 48 h
U-251 = system: U-251
ACHN = system: ACHN
SNB-75 = system: SNB-75
SR = system: SR
COLO 205 = system: COLO 205
NCI-H23 = system: NCI-H23
HL-60 = system: HL-60
Malme-3M = system: Malme-3M
OVCAR-5 = system: OVCAR-5
OVCAR-4 = system: OVCAR-4
DU-145 = system: DU-145
HCT-15 = system: HCT-15
SF-295 = system: SF-295
786-0 = system: 786-0
OVCAR-8 = system: OVCAR-8
OVCAR-3 = system: OVCAR-3
MCF7 = system: MCF7
SK-OV-3 = system: SK-OV-3
RPMI-8226 = system: RPMI-8226
UACC-257 = system: UACC-257

Compound | GI50 (U-251) | GI50 (ACHN) | GI50 (SNB-75) | GI50 (SR) | GI50 (COLO 205) | GI50 (NCI-H23) | GI50 (HL-60) | GI50 (Malme-3M) | GI50 (OVCAR-5) | GI50 (OVCAR-4) | GI50 (DU-145) | GI50 (HCT-15) | GI50 (SF-295) | GI50 (786-0) | GI50 (OVCAR-8) | GI50 (OVCAR-3) | GI50 (MCF7) | GI50 (SK-OV-3) | GI50 (RPMI-8226) | GI50 (UACC-257)
CCc1nc(N)nc(N)c1-c1ccc([N+](=O)[O-])c(Cl)c1 | 3.1 µM (inactive) | 2.73 µM (inactive) | 28.2 µM (inactive) | 1.74 µM (inactive) | 12.5 µM (inactive) | 3.56 µM (inactive) | 0.855 µM (active) | > 100 µM (inactive) | 25.2 µM (inactive) | 46.5 µM (inactive) | 10.8 µM (inactive) | 1.35 µM | 2.59 µM (inactive) | 1.77 µM (inactive) | 3.7 µM (inactive) | 11.5 µM (inactive) | 4.55 µM (inactive) | 27.5 µM (inactive) | 8.36 µM (inactive) | 31 µM (inactive)
CCCSc1ccc2[nH]c(N3C(=O)/C(=C/c4ccccc4)N=C3c3ccccc3)cc2c1 |  | 39.2 µM (inactive) | 40.6 µM (inactive) | 10.5 µM (inactive) | 10.5 µM (inactive) | 23.5 µM (inactive) | 12.1 µM (inactive) | 24.2 µM (inactive) | > 50 µM (inactive) | 30 µM (inactive) | 35.6 µM (inactive) | 19.2 µM |  | 23.3 µM (inactive) | 19.5 µM (inactive) |  | 24.4 µM (inactive) |  | 12.4 µM (inactive) | 17 µM (inactive)
NNC(=O)c1cc([N+](=O)[O-])ccc1NC(=O)C12CC3CC(CC(C3)C1)C2 | 6.92 µM (inactive) | 10 µM (inactive) |  | 3.43 µM (inactive) | 6.04 µM (inactive) | 19.5 µM (inactive) | 3.09 µM (inactive) | 16.5 µM (inactive) | 13.4 µM (inactive) | 2.62 µM (inactive) | 20 µM (inactive) | 0.635 µM | 14 µM (inactive) | 11.7 µM (inactive) | 14.9 µM (inactive) | 3.15 µM (inactive) | 23.1 µM (inactive) | 2.7 µM (inactive) | 12.2 µM (inactive) | 15.2 µM (inactive)
COc1ccc(-c2csc3c2-n2cccc2C3=O)cc1 | 0.0326 µM (active) | 0.805 µM (active) | 0.0964 µM (active) | 0.0206 µM (active) | 0.215 µM (active) | 0.438 µM (active) | < 0.0176 µM (active) | 28.8 µM (inactive) | 34 µM (inactive) | 2.07 µM (inactive) | 0.175 µM (active) | 0.0653 µM | 0.0395 µM (active) | 0.303 µM (active) | 0.0867 µM (active) | 0.0416 µM (active) | 0.18 µM (active) | 0.216 µM (active) | 0.0425 µM (active) | 
O=C(C/C(=N/O)C(F)(F)F)c1cccs1 | > 100 µM (inactive) | > 100 µM (inactive) | > 100 µM (inactive) | > 100 µM (inactive) | > 100 µM (inactive) | > 100 µM (inactive) | > 100 µM (inactive) |  | > 100 µM (inactive) | > 100 µM (inactive) | > 100 µM (inactive) | > 100 µM | > 100 µM (inactive) | > 100 µM (inactive) | > 100 µM (inactive) | 67.8 µM (inactive) | > 100 µM (inactive) | 76.2 µM (inactive) | > 100 µM (inactive) | > 100 µM (inactive)
CCC(=O)NI1OC(=O)c2ccccc21 | > 100 µM (inactive) | > 100 µM (inactive) | > 100 µM (inactive) | 36.9 µM (inactive) | > 100 µM (inactive) | > 100 µM (inactive) | 47.3 µM (inactive) |  | > 100 µM (inactive) | > 100 µM (inactive) | > 100 µM (inactive) | 43.5 µM | > 100 µM (inactive) | > 100 µM (inactive) | > 100 µM (inactive) | > 100 µM (inactive) | > 100 µM (inactive) | > 100 µM (inactive) | 45.9 µM (inactive) | > 100 µM (inactive)
Cc1cc2c(SCc3ccccc3Cl)nc(N)nc2nc1C | > 100 µM (inactive) | > 100 µM (inactive) | > 100 µM (inactive) | > 100 µM (inactive) | > 100 µM (inactive) | > 100 µM (inactive) | > 100 µM (inactive) | > 100 µM (inactive) | > 100 µM (inactive) | > 100 µM (inactive) | > 100 µM (inactive) | > 100 µM | 97.5 µM (inactive) | > 100 µM (inactive) | > 100 µM (inactive) | > 100 µM (inactive) | > 100 µM (inactive) | > 100 µM (inactive) | > 100 µM (inactive) | > 100 µM (inactive)
Nc1c(-c2ccccc2)c2ccc([N+](=O)[O-])cc2c(=O)n1-c1cccc(C(=O)O)c1 | > 100 µM (inactive) | > 100 µM (inactive) | > 100 µM (inactive) | > 100 µM (inactive) |  | > 100 µM (inactive) | 38.3 µM (inactive) |  | > 100 µM (inactive) | > 100 µM (inactive) | > 100 µM (inactive) | > 100 µM | > 100 µM (inactive) | > 10 µM (inactive) | > 100 µM (inactive) | > 100 µM (inactive) | > 100 µM (inactive) | > 100 µM (inactive) | > 100 µM (inactive) | > 100 µM (inactive)
CCC(=O)C(CCN1CCC(N2C(=O)C(CCC#N)c3ccccc32)CC1)(c1ccccc1)c1ccccc1 (stereo unspecified) | 14.6 µM (inactive) | 15.9 µM (inactive) | 12.9 µM (inactive) | 0.0486 µM (active) | 8.97 µM (inactive) | 18.2 µM (inactive) | 4.67 µM (inactive) | 12.1 µM (inactive) | 22.3 µM (inactive) |  | 12.2 µM (inactive) | 13.1 µM | 13.3 µM (inactive) | 12.3 µM (inactive) | 11.4 µM (inactive) | 10.9 µM (inactive) | 11.5 µM (inactive) | 15.5 µM (inactive) | 4.17 µM (inactive) | 13 µM (inactive)
N#Cc1c2c(c(Nc3ccc(F)cc3)n3c1nc1ccccc13)CCC2 | 2.84 µM (inactive) | 2.29 µM (inactive) | 6.18 µM (inactive) | 10.2 µM (inactive) | 6.31 µM (inactive) | 4.93 µM (inactive) | 3.96 µM (inactive) | 7.41 µM (inactive) | 5.02 µM (inactive) | 10 µM (inactive) | 3.61 µM (inactive) | 3.99 µM | 5.05 µM (inactive) | 1.78 µM (inactive) | 2.36 µM (inactive) | 7.89 µM (inactive) | 3.32 µM (inactive) | 9.93 µM (inactive) | 2.28 µM (inactive) | 7.96 µM (inactive)
c1ccc2c(Cc3c[nH]c4ccccc34)c[nH]c2c1 [ARUNDINE] | 17.7 µM (inactive) | > 100 µM (inactive) | 17.4 µM (inactive) | 12.4 µM (inactive) | 13.6 µM (inactive) | 13.3 µM (inactive) | 12.5 µM (inactive) | 31.3 µM (inactive) | 14.2 µM (inactive) | 17.8 µM (inactive) | 18.2 µM (inactive) | 23.4 µM | 19.9 µM (inactive) | 18.5 µM (inactive) | 20.5 µM (inactive) | 15.7 µM (inactive) | > 100 µM (inactive) | 23.7 µM (inactive) | 20.2 µM (inactive) | 18.5 µM (inactive)
O=c1[nH]nc(Cc2ccccc2)n1CCCl | > 100 µM (inactive) |  | > 100 µM (inactive) | > 100 µM (inactive) | > 100 µM (inactive) | > 100 µM (inactive) | > 100 µM (inactive) | > 100 µM (inactive) | > 100 µM (inactive) | > 100 µM (inactive) | > 100 µM (inactive) | > 100 µM | > 100 µM (inactive) | > 100 µM (inactive) | > 100 µM (inactive) | > 100 µM (inactive) | > 100 µM (inactive) | > 100 µM (inactive) | > 100 µM (inactive) | 
CCCC(=O)NC1CCc2cc(OC)c(OC)c(OC)c2-c2ccc(OC)c(=O)cc21 (stereo unspecified) | 0.000344 µM (active) | 0.019 µM (active) | 1.82 µM (inactive) | 0.114 µM (active) | 0.000235 µM (active) | 0.000715 µM (active) | 0.000321 µM (active) | 0.000764 µM (active) | 0.00312 µM (active) |  | 0.00117 µM (active) | 0.00637 µM | 0.000512 µM (active) | 0.000652 µM (active) | 0.00252 µM (active) | 0.000384 µM (active) | 0.000257 µM (active) | 0.00454 µM (active) | 0.01 µM (active) | 
Cn1c(=O)c2c(nc(Nc3ccc(Cl)cc3)n3c(=O)n(-c4ccccc4)c(=O)n23)n(C)c1=O | > 100 µM (inactive) | > 100 µM (inactive) | 15.5 µM (inactive) | > 100 µM (inactive) | > 100 µM (inactive) | > 100 µM (inactive) | > 100 µM (inactive) |  | > 100 µM (inactive) | > 100 µM (inactive) | > 100 µM (inactive) | > 100 µM | > 100 µM (inactive) | > 100 µM (inactive) | > 100 µM (inactive) | > 100 µM (inactive) | > 100 µM (inactive) |  | > 100 µM (inactive) | > 100 µM (inactive)
CCOC(=O)c1csc(NC(=O)CN2CCOCC2)n1 | > 100 µM (inactive) | > 100 µM (inactive) | > 100 µM (inactive) | > 100 µM (inactive) | > 100 µM (inactive) | > 100 µM (inactive) | > 100 µM (inactive) |  | > 100 µM (inactive) | > 100 µM (inactive) | > 100 µM (inactive) | > 100 µM | > 100 µM (inactive) |  | > 100 µM (inactive) | > 100 µM (inactive) | > 100 µM (inactive) | > 100 µM (inactive) | > 100 µM (inactive) | > 100 µM (inactive)
